Data from patent publication US8361743B2, “Biological production of zeaxanthin and carotenoid biosynthesis control” (Aquapharm Bio-Discovery Ltd., priority 2005, dated 2013).

System: strain AQP096
Assay: Induction of the carotenoid biosynthetic pathway using menadione, HPLC carotenoid analysis
Type: cell-based, Algibacter sp. AQP096
Experimental: On the HPLC using a reverse phase Gemini C-18 250×4.6 mm column, 10 μl of pigment sample was eluted with a linear gradient from 10% v/v Acetone in Water: 100% Acetone (30:70) to 10% v/v Acetone in Water:100% Acetone (5:95) for 10 min followed with a 6 minute run of 10% v/v Acetone in Water:100% Acetone (5:95) before returning to the start conditions of 10% v/v Acetone in Water: 100% Acetone (30:70) with a 1 min linear gradient and a two minute run of 10% v/v Acetone in Water:100% Acetone (30:70) at a flow rate of 1.3 ml/min. Detection was at 450 nm. Menadione at a concentration of 0.100 mg/ml was added to a 24 hr old culture of AQP096 cultured in marine broth. This culture was further incubated for 4 days on the orbital shaker at 220 rpm […]. After 5 days of incubation, cultures were centrifuged (4,500 rpm, 20 min) and the pigments analysed for carotenoid content by HPLC (See FIGS. 4a and 4b).

CC1=CC(=O)c2ccccc2C1=O [menadione]
induced production of astaxanthin (menadione 0.100 mg/ml): ~12%
induced production of beta carotene (menadione 0.100 mg/ml): about 10%
induced production of beta-cryptoxanthin (menadione 0.100 mg/ml): ~8%
induced production of canthaxanthin (menadione 0.100 mg/ml): ~12%
induced production of lycopene (menadione 0.100 mg/ml): ~6%
induced production of other carotenoids such as adonirubin and 3-hydroxyechinenone (menadione 0.100 mg/ml): ~2%
effect on carotenoid production (menadione 0.100 mg/ml added to 24 hr old culture in marine broth, HPLC): induced the production of all carotenoids associated with the standard carotenoid biosynthetic pathway
amount of zeaxanthin produced by AQP096 (menadione 0.100 mg/ml, 98% under standard growth conditions): around 60%
